Measured values taken from patent publication US4018765A, “Process for the preparation of certain hydroperoxy derivatives” (Hoffmann-La Roche Inc., priority 1975, dated 1977).
Where two headings read alike, the source gives them in different places.

Columns and labels:
Format in all cases: in vivo
mice [1] = assay: psychostimulant activity (pharmacological tests in animals such as mice); conditions: similarly tested
Method: (§1) As has been indicated hereinabove the novel end products of this invention, i.e., the compounds of formula I and their pharmaceutically acceptable acid addition salts and the compounds of formula II-d and their pharmaceutically acceptable acid addition salts, are useful as psychostimulants. When administered, for example, orally, or animals such as mice they produce a direct-acting stimulant effect of long duration in single doses in amounts ranging from 0.03 mg/kg to 50 mg/kg. […] Exp. Path. and Pharm., Vol. 140, page 237). The compounds of this invention have psychostimulant effects qualitatively similar in many respect to those of imipramine and amphetamine which are wellknown for their therapeutic uses and properties.

dogs = assay: blood pressure in dogs; conditions: 4 mg/kg i.v.
Method: (§2) In addition to their use as psychostimulants, the compounds of formulas I and II-d are also useful as analgesic agents. […] For example, 2-(2-benzoylphenyl)-2-imadazoline in dogs at 4 mg/kg i.v. produced an increase in blood pressure of 10 mm. Hg after 2 minutes followed by gradual increase to 25 mm. Hg.

[2] = test system: effects of β-(3,4-dihydroxyphenyl)-α-alanine (DOPA) in mice; assay: DOPA potentiation test in mice; conditions: Mus musculus, ip
Method: as §1

unanesthetized cat = unanesthetized cat test for muscle relaxants; conditions: p.o.
Method: as §2

animals = assay: analgesic properties (pharmacological tests in animals); conditions: based on the pharmacological tests in animals
Method: as §2

mice [3] = assay: writhing test in mice (analgesic); conditions: p.o.
Method: as §2

[4] = test system: ptosis induced by tetrabenzene in mice; assay: prevention of ptosis induced by tetrabenzene (tetrabenazene) in mice; conditions: Mus musculus, po, read-out: dose that prevented the ptosis induced by tetrabenzene
Method: as §1

[5] = test system: hypothermia induced by reserpine in mice; assay: reversal of hypothermia induced by reserpine in mice; conditions: Mus musculus, po, reserpine 10 mg/kg s.c., read-out: dose that reversed the hypothermia and hypometabolic effects induced by reserpine
Method: as §1

[6] = mice, i.p., read-out: dose that potentiated the effects of DOPA
[7] = comparison drugs, read-out: dose showing psychostimulant activity in the DOPA potentiation test

COc1ccc(C2(O)c3ccccc3C3=NCCN32)cc1 (centres unmarked) [2,3-dihydro-5-hydroxy-5-(4-methoxyphenyl)-5H-imidazo[2,1-a]-isoindole]
psychostimulant test result relative to 2-(2-benzoylphenyl)-2-imidazoline (mice [1]): qualitatively similar to 2-(2-benzoylphenyl)-2-imidazoline

OC1(c2ccc(Cl)cc2)c2ccccc2C2=NCCN21 (centres unmarked) [5-(4-chlorophenyl)-2,3-dihydro-5-hydroxy-5H-imidazo[2,1-a]-isoindole]
psychostimulant test result relative to 2-(2-benzoylphenyl)-2-imidazoline (mice [1]): qualitatively similar to 2-(2-benzoylphenyl)-2-imidazoline

O=C(c1ccccc1)c1ccccc1C1=NCCN1 [Example 10, 2-(2-benzoylphenyl)-2-imidazoline]
increase in blood pressure after 2 minutes (dogs; after 2 minutes): 10 mm. Hg
increase in blood pressure, following gradual increase (dogs; gradual increase after the first 2 minutes): 25 mm. Hg
minimal effective dose [2, 6]: 6.25 mg/kg
dose active in the unanesthetized cat test for muscle relaxants (unanesthetized cat): 2.5 mg/kg
analgesic properties relative to phenylbutazone (animals): can be likened to the analgesic properties of phenylbutazone
dose with marked activity in the writhing test (mice [3]): 30.8 mg/kg
minimal effective dose [4]: 0.06 mg/kg

COC1(c2ccccc2)c2ccccc2C2=NCCN21 (centres unmarked) [Example 19, 2,3-dihydro-5-methoxy-5-phenyl-5H-imidazo[2,1-a]isoindole]
psychostimulant test result relative to 2-(2-benzoylphenyl)-2-imidazoline (mice [1]): qualitatively similar to 2-(2-benzoylphenyl)-2-imidazoline

OC1(c2ccccc2)c2ccccc2C2=NCCCCN21 (centres unmarked) [Example 21, 2,3,4,5-tetrahydro-7-hydroxy-7-phenyl-7H-diazepino-[2,1-a]isoindole]
minimal effective dose [2, 6]: 7.5 mg/kg
minimal effective dose [5]: 25 mg/kg

CC(N)Cc1ccccc1 (centres unmarked) [amphetamine, reference compound]
minimal effective dose [2, 7]: 1 mg/kg

CN(C)CCCN1c2ccccc2CCc2ccccc21 [imipramine, reference compound]
minimal effective dose [2, 7]: 10 mg/kg
